This series is described as follows: MALDI-TOF screening of Ni^2+ dependent hydrolysis in a combinatorial peptide library. It counts as physicochemical. The following applies: CH3CO-Gly-Ala-Ser-X-His-Z-Lys-Phe-Leu-NH2 library, Ni^2+ 2 mM, pH 8.2, 10 mM Tris, score=24/tm. A digest of the protocol: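 The screen used 1 mM peptide mixtures in 10 mM Tris, pH 8.2, with 2 mM Ni2+ at two temperatures, 37 °C and 45 °C. Product appearance and substrate decline were monitored visually by MALDI-TOF over 8 h. Scores for X and Z were then summed by row and column to rank substitutions.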

Regarding Ac-GASRHTKFL-NH2 [SRHT], the “hydrolysis score from MALDI-TOF screening” value (“hydrolysis score” for short) reads like this: (37° C.) 0 (a score of 0 if no trace of the product of hydrolysis was seen after 8 hours of incubation); (45° C.) 3 (a score of 3 for detection at 8 hours).

Turning to Ac-GASRHVKFL-NH2 [SRHV], the “hydrolysis score” value runs as follows: (37° C.) 6 (a score of 6 for detection at 4 hours); (45° C.) 12 (a score of 12, if it was seen to be partially hydrolysed at 2 hours).

Regarding Ac-GASRHYKFL-NH2 [SRHY], the “hydrolysis score” value is on record as 4 (a score of 4 for detection at 6 hours) (37° C.) and 6 (a score of 6 for detection at 4 hours) (45° C.).

As to Ac-GASSHAKFL-NH2 [SSHA], the “hydrolysis score” value by setting is: (37° C.) 0 (a score of 0 if no trace of the product of hydrolysis was seen after 8 hours of incubation); (45° C.) 3 (a score of 3 for detection at 8 hours).

As to Ac-GASSHDKFL-NH2 [SSHD], the “hydrolysis score” value runs as follows: (37° C.) 0 (a score of 0 if no trace of the product of hydrolysis was seen after 8 hours of incubation); (45° C.) 3 (a score of 3 for detection at 8 hours).

As to Ac-GASSHEKFL-NH2 [SSHE], the “hydrolysis score” value (37° C.) is listed as 0 (a score of 0 if no trace of the product of hydrolysis was seen after 8 hours of incubation) and the “hydrolysis score” value (45° C.) was 3 (a score of 3 for detection at 8 hours).

As for Ac-GASSHFKFL-NH2 [SSHF], the “hydrolysis score” value runs as follows: (37° C.) 3 (a score of 3 for detection at 8 hours); (45° C.) 3 (a score of 3 for detection at 8 hours).

In the case of Ac-GASSHGKFL-NH2 [SSHG], the “hydrolysis score” value by setting is: (37° C.) 0 (a score of 0 if no trace of the product of hydrolysis was seen after 8 hours of incubation); (45° C.) 3 (a score of 3 for detection at 8 hours).

Regarding Ac-GASSHHKFL-NH2 [SSHH], the “hydrolysis score” value was 0 (a score of 0 if no trace of the product of hydrolysis was seen after 8 hours of incubation) (37° C.) and 3 (a score of 3 for detection at 8 hours) (45° C.).

As to Ac-GASSHIKFL-NH2 [SSHI], the “hydrolysis score” value is, setting by setting: (37° C.) 6 (a score of 6 for detection at 4 hours); (45° C.) 6 (a score of 6 for detection at 4 hours).

Regarding Ac-GASSHKKFL-NH2 [SSHK], the “hydrolysis score” value (37° C.) was 4 (a score of 4 for detection at 6 hours) and the “hydrolysis score” value (45° C.) was 6 (a score of 6 for detection at 4 hours).

For Ac-GASSHLKFL-NH2 [SSHL], the “hydrolysis score” value reads like this: (37° C.) 6 (a score of 6 for detection at 4 hours); (45° C.) 6 (a score of 6 for detection at 4 hours).

As to Ac-GASSHNKFL-NH2 [SSHN], the “hydrolysis score” value by setting is: (37° C.) 0 (a score of 0 if no trace of the product of hydrolysis was seen after 8 hours of incubation); (45° C.) 0 (a score of 0 if no trace of the product of hydrolysis was seen after 8 hours of incubation).

Turning to Ac-GASSHPKFL-NH2 [SSHP], the “hydrolysis score” value (37° C.) is given as 0 (a score of 0 if no trace of the product of hydrolysis was seen after 8 hours of incubation) and the “hydrolysis score” value (45° C.) is reported as 0 (a score of 0 if no trace of the product of hydrolysis was seen after 8 hours of incubation).

On to Ac-GASSHQKFL-NH2 [SSHQ], for which the “hydrolysis score” value runs as follows: (37° C.) 0 (a score of 0 if no trace of the product of hydrolysis was seen after 8 hours of incubation); (45° C.) 0 (a score of 0 if no trace of the product of hydrolysis was seen after 8 hours of incubation).

Take Ac-GASSHRKFL-NH2 [SSHR]: the “hydrolysis score” value reads like this: (37° C.) 6 (a score of 6 for detection at 4 hours); (45° C.) 6 (a score of 6 for detection at 4 hours).

Turning to Ac-GASSHSKFL-NH2 [SSHS], the “hydrolysis score” value runs as follows: (37° C.) 0 (a score of 0 if no trace of the product of hydrolysis was seen after 8 hours of incubation); (45° C.) 3 (a score of 3 for detection at 8 hours).

For the substance Ac-GASSHTKFL-NH2 [SSHT], the “hydrolysis score” value was 0 (a score of 0 if no trace of the product of hydrolysis was seen after 8 hours of incubation) (37° C.) and 0 (a score of 0 if no trace of the product of hydrolysis was seen after 8 hours of incubation) (45° C.).

Take Ac-GASSHVKFL-NH2 [SSHV]: the “hydrolysis score” value by setting is: (37° C.) 3 (a score of 3 for detection at 8 hours); (45° C.) 4 (a score of 4 for detection at 6 hours).

As to Ac-GASSHWKFL-NH2 [SSHW], the “hydrolysis score” value by setting is: (37° C.) 6 (a score of 6 for detection at 4 hours); (45° C.) 12 (a score of 12, if it was seen to be partially hydrolysed at 2 hours).

Take Ac-GASSHYKFL-NH2 [SSHY]: the “hydrolysis score” value is given as 3 (a score of 3 for detection at 8 hours) (37° C.) and 3 (a score of 3 for detection at 8 hours) (45° C.).

As for Ac-GASTHAKFL-NH2 [STHA], the “hydrolysis score” value runs as follows: (37° C.) 0 (a score of 0 if no trace of the product of hydrolysis was seen after 8 hours of incubation); (45° C.) 0 (a score of 0 if no trace of the product of hydrolysis was seen after 8 hours of incubation).

As to Ac-GASTHDKFL-NH2 [STHD], the “hydrolysis score” value is reported as 0 (a score of 0 if no trace of the product of hydrolysis was seen after 8 hours of incubation) (37° C.) and 0 (a score of 0 if no trace of the product of hydrolysis was seen after 8 hours of incubation) (45° C.).

Consider Ac-GASTHEKFL-NH2 [STHE], for which the “hydrolysis score” value was 0 (a score of 0 if no trace of the product of hydrolysis was seen after 8 hours of incubation) (37° C.) and 0 (a score of 0 if no trace of the product of hydrolysis was seen after 8 hours of incubation) (45° C.).

Consider Ac-GASTHFKFL-NH2 [STHF], for which the “hydrolysis score” value by setting is: (37° C.) 0 (a score of 0 if no trace of the product of hydrolysis was seen after 8 hours of incubation); (45° C.) 3 (a score of 3 for detection at 8 hours).

For the substance Ac-GASTHGKFL-NH2 [STHG], the “hydrolysis score” value was 0 (a score of 0 if no trace of the product of hydrolysis was seen after 8 hours of incubation) (37° C.) and 0 (a score of 0 if no trace of the product of hydrolysis was seen after 8 hours of incubation) (45° C.).

For Ac-GASTHHKFL-NH2 [STHH], the “hydrolysis score” value is 0 (a score of 0 if no trace of the product of hydrolysis was seen after 8 hours of incubation) (37° C.) and 3 (a score of 3 for detection at 8 hours) (45° C.).

Consider Ac-GASTHIKFL-NH2 [STHI], for which the “hydrolysis score” value (37° C.) is 4 (a score of 4 for detection at 6 hours) and the “hydrolysis score” value (45° C.) is 6 (a score of 6 for detection at 4 hours).

In the case of Ac-GASTHKKFL-NH2 [STHK], the “hydrolysis score” value (37° C.) was 3 (a score of 3 for detection at 8 hours) and the “hydrolysis score” value (45° C.) is reported as 6 (a score of 6 for detection at 4 hours).

With Ac-GASTHLKFL-NH2 [STHL], the “hydrolysis score” value reads like this: (37° C.) 4 (a score of 4 for detection at 6 hours); (45° C.) 6 (a score of 6 for detection at 4 hours).

Regarding Ac-GASTHMKFL-NH2 [STHM], the “hydrolysis score” value by setting is: (37° C.) 0 (a score of 0 if no trace of the product of hydrolysis was seen after 8 hours of incubation); (45° C.) 0 (a score of 0 if no trace of the product of hydrolysis was seen after 8 hours of incubation).

For Ac-GASTHNKFL-NH2 [STHN], the “hydrolysis score” value runs as follows: (37° C.) 0 (a score of 0 if no trace of the product of hydrolysis was seen after 8 hours of incubation); (45° C.) 0 (a score of 0 if no trace of the product of hydrolysis was seen after 8 hours of incubation).

For Ac-GASTHPKFL-NH2 [STHP], the “hydrolysis score” value (37° C.) is recorded as 0 (a score of 0 if no trace of the product of hydrolysis was seen after 8 hours of incubation) and the “hydrolysis score” value (45° C.) is on record as 0 (a score of 0 if no trace of the product of hydrolysis was seen after 8 hours of incubation).

As to Ac-GASTHQKFL-NH2 [STHQ], the “hydrolysis score” value was 0 (a score of 0 if no trace of the product of hydrolysis was seen after 8 hours of incubation) (37° C.) and 0 (a score of 0 if no trace of the product of hydrolysis was seen after 8 hours of incubation) (45° C.).

For the substance Ac-GASTHRKFL-NH2 [STHR], the “hydrolysis score” value is recorded as 3 (a score of 3 for detection at 8 hours) (37° C.) and 6 (a score of 6 for detection at 4 hours) (45° C.).

Regarding Ac-GASTHSKFL-NH2 [STHS], the “hydrolysis score” value was 0 (a score of 0 if no trace of the product of hydrolysis was seen after 8 hours of incubation) (37° C.) and 0 (a score of 0 if no trace of the product of hydrolysis was seen after 8 hours of incubation) (45° C.).

On to Ac-GASTHTKFL-NH2 [STHT], for which the “hydrolysis score” value is 0 (a score of 0 if no trace of the product of hydrolysis was seen after 8 hours of incubation) (37° C.) and 0 (a score of 0 if no trace of the product of hydrolysis was seen after 8 hours of incubation) (45° C.).

For Ac-GASTHVKFL-NH2 [STHV], the “hydrolysis score” value by setting is: (37° C.) 0 (a score of 0 if no trace of the product of hydrolysis was seen after 8 hours of incubation); (45° C.) 6 (a score of 6 for detection at 4 hours).

(Values after patent US8969516B2, “Method of hydrolysis of peptide bond” (priority 2006, dated 2015).)
